Measurements from the CheMixHub viscosity set.

Experiment: xn = mol fraction of the nth substance listed

CCCCC(CC)COP(=O)(O)OCC(CC)CCCC (stereo unspecified) + CCCO
303.15 K, 101 kPa
Conditions | viscosity [mPa·s]
x1 = 0.0388 | 2.397
x1 = 0.0845 | 3.204
x1 = 0.1765 | 4.994
x1 = 0.2522 | 6.571
x1 = 0.3449 | 8.647
x1 = 0.4687 | 11.29
x1 = 0.6123 | 13.8
x1 = 0.7274 | 15.62
x1 = 0.8109 | 16.82
x1 = 0.9261 | 18.45

CCCCOC(=O)C(C)O (stereo unspecified) + CCCO
101 kPa, x1 = 0.8998
Conditions | viscosity [mPa·s]
303.15 K | 2.685
313.15 K | 2.075

C[N+](=O)[O-] + CCCO
viscosity [mPa·s]
Conditions | 293.15 K | 298.15 K | 303.15 K | 313.15 K
101 kPa, x1 = 0.1338 | – | 1.55 | – | –
101 kPa, x1 = 0.2584 | – | 1.24 | – | –
101 kPa, x1 = 0.3737 | – | 1.011 | – | –
101 kPa, x1 = 0.4815 | – | 0.8394 | – | –
101 kPa, x1 = 0.5819 | – | 0.7389 | – | –
101 kPa, x1 = 0.6764 | – | 0.6772 | – | –
101 kPa, x1 = 0.7649 | – | 0.6555 | – | –
101 kPa, x1 = 0.8479 | – | 0.6441 | – | –
101 kPa, x1 = 0.9262 | – | 0.6388 | – | –
101.33 kPa, x2 = 0.0501 | 0.636 | – | 0.565 | 0.508
101.33 kPa, x2 = 0.1001 | 0.633 | – | 0.56 | 0.501
101.33 kPa, x2 = 0.1501 | 0.64 | – | 0.563 | 0.502
101.33 kPa, x2 = 0.2 | 0.656 | – | 0.574 | 0.508
101.33 kPa, x2 = 0.25 | 0.681 | – | 0.591 | 0.519
101.33 kPa, x2 = 0.3001 | 0.713 | – | 0.612 | 0.534
101.33 kPa, x2 = 0.3501 | 0.753 | – | 0.639 | 0.553
101.33 kPa, x2 = 0.4001 | 0.795 | – | 0.67 | 0.576
101.33 kPa, x2 = 0.45 | 0.843 | – | 0.704 | 0.6
101.33 kPa, x2 = 0.5 | 0.892 | – | 0.74 | 0.629
101.33 kPa, x2 = 0.5501 | 0.949 | – | 0.785 | 0.661
101.33 kPa, x2 = 0.6001 | 1.01 | – | 0.832 | 0.697
101.33 kPa, x2 = 0.65 | 1.081 | – | 0.886 | 0.739
101.33 kPa, x2 = 0.7 | 1.162 | – | 0.95 | 0.789
101.33 kPa, x2 = 0.75 | 1.26 | – | 1.023 | 0.845
101.33 kPa, x2 = 0.8 | 1.375 | – | 1.112 | 0.912
101.33 kPa, x2 = 0.85 | 1.519 | – | 1.218 | 0.993
101.33 kPa, x2 = 0.9 | 1.693 | – | 1.349 | 1.094
101.33 kPa, x2 = 0.95 | 1.911 | – | 1.51 | 1.214

O=S(=O)([N-]S(=O)(=O)C(F)(F)F)C(F)(F)F.On1cc[n+](O)c1 + CCCO
100 kPa
Conditions | viscosity [mPa·s]
293.15 K, x1 = 0.3992 | 31.05
293.15 K, x1 = 0.5999 | 65.75
303.15 K, x1 = 0.7996 | 77.95
313.15 K, x1 = 0.4985 | 20.85

CC(=O)c1ccc(C)cc1 + CCNc1ccccc1
303.15 K, 100 kPa
Conditions | viscosity [mPa·s]
x2 = 0.0838 | 1.587
x2 = 0.1427 | 1.592
x2 = 0.2179 | 1.601
x2 = 0.2904 | 1.608
x2 = 0.3608 | 1.616
x2 = 0.4284 | 1.625
x2 = 0.4942 | 1.635
x2 = 0.5577 | 1.645
x2 = 0.6194 | 1.656
x2 = 0.6889 | 1.67
x2 = 0.7467 | 1.683
x2 = 0.8128 | 1.697
x2 = 0.9072 | 1.718

CCCCC(CC)COP(=O)(O)OCC(CC)CCCC (stereo unspecified) + CCO
303.15 K, 101 kPa
Conditions | viscosity [mPa·s]
x1 = 0.0484 | 1.909
x1 = 0.086 | 2.633
x1 = 0.1497 | 3.874
x1 = 0.246 | 5.98
x1 = 0.3456 | 8.285
x1 = 0.4132 | 9.819
x1 = 0.5228 | 12.07
x1 = 0.6182 | 13.82
x1 = 0.7125 | 15.38
x1 = 0.8312 | 17.13
x1 = 0.9224 | 18.43
